Laboratory results taken from paper PMC8805583, “Discovery of Herbacetin as a Novel SGK1 Inhibitor to Alleviate Myocardial Hypertrophy” (Advanced Science, 2021).

What was measured:
[1] = target: T1, SGK1 (Homo sapiens, UniProt O00141); test: KINOMEscan direct binding assay (Eurofins Discovery)
T1 sequence (O00141 1-431): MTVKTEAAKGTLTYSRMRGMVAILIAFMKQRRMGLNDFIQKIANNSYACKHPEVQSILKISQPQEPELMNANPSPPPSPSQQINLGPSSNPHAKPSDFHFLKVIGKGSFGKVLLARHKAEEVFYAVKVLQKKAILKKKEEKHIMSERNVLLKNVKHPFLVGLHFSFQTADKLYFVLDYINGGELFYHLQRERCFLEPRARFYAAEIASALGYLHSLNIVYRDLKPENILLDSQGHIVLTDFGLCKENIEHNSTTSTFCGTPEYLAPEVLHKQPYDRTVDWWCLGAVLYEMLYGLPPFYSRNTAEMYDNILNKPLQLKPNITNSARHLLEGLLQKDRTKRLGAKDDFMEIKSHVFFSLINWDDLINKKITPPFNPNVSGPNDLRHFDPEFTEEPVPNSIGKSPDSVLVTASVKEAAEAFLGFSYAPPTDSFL
Description: To identify active compounds with SGK1 inhibitory activity from Ext.R, a novel mass‐spectrometry based kinase inhibitory assay was developed. A polypeptide sequence ([…], m/z: 618.6) derived from glycogen Synthase Kinase‐3(GSK3), a known substrate of SGK1, was optimized and synthesized. We subsequently used liquid chromatography coupled with mass spectrometry (LC/MS) to detect and quantify its phosphorylation level ([…](p)FAE, m/z:658.7) (Figure 3A).^[ [26] ^] Basal level SGK1 was supplemented to each well, and the peak area of phosphorylation was measured in the presence or absence of testing compounds. […] After investigating the major chemical constituents in Ext.R (Table S3, Supporting Information), a set of compounds in Ext.R were subsequently screened for their impacts on SGK1 activity. […] The direct interaction between HBT and SGK1 was further verified by temperature‐ and dose‐dependent cellular thermal shift assays (Figure 3E,F). We further performed a direct binding assay of HBT to SGK1 by KINOMEscan assay (Eurofins Discovery).
The initial crystal structures of SGK1 (PDB entry: 3HDN, 3HDM, and 2R5T) were obtained from the Protein Data Bank (PDB). The prepared inhibitors were then docked by Glide with the extra precision (XP) scoring mode to estimate the binding affinity for each protein–ligand complex. The detailed process of docking has been described previously.^[ [46] ^] […]

[2] = target: T2, Rho-associated protein kinas-1 (ROCK-I) (Homo sapiens, UniProt Q13464); test: KinaseProfiler Assay, AGC kinase panel; type: biochemical; details: HBT 10 µmol
T2 construct: purchased Eurofins Discovery (KinaseProfiler Service)
T2 sequence (Q13464 whole entry): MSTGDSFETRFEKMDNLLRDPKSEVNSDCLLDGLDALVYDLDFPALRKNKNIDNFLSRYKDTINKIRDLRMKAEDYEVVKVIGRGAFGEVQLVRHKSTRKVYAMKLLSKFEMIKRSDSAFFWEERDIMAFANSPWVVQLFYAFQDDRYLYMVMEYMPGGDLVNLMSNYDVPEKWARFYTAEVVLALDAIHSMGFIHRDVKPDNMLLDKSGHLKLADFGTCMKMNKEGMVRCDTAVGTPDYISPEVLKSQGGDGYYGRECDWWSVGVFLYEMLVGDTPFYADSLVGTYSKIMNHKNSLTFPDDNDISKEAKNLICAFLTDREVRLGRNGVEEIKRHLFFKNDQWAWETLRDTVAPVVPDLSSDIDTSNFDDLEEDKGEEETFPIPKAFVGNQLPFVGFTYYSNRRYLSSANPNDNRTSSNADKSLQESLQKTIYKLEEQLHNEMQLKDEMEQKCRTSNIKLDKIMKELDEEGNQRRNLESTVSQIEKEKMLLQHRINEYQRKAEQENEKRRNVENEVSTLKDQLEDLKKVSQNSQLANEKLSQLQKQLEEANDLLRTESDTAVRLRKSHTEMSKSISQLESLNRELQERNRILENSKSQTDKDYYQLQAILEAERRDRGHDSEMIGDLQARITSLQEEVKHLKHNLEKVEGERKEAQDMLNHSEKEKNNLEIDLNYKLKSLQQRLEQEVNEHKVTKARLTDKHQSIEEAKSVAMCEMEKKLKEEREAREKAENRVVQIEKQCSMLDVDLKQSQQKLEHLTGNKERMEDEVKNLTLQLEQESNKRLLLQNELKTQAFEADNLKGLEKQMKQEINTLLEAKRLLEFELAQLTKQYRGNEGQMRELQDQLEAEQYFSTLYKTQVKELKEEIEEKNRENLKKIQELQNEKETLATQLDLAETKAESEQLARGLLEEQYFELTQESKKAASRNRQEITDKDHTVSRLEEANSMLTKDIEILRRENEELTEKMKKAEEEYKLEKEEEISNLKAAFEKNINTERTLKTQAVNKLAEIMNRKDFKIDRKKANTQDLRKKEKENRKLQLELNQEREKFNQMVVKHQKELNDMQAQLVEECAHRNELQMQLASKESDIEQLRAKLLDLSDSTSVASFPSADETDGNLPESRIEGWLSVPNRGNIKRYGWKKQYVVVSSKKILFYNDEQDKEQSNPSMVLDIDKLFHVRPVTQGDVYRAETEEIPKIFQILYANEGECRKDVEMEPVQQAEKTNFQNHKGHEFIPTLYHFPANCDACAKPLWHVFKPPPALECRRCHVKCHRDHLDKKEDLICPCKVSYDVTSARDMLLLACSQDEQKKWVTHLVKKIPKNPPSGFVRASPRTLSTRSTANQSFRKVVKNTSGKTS
Description: (§1) 20 structurally related flavonoids of HBT were collected, which differ in the number and position of —OH groups, and examined for their effects on SGK1 activity. Based on the docking prediction, the —OH group at the C‐4’ position of HBT was required for the interaction with the key SGK1 residue D177. Therefore, the 20 flavonoids were divided into two classes according to the presence or absence of an —OH group at C‐4’ (Figure 4B). At both tested concentrations, flavonoids with an —OH group at C‐4’ (class A) inhibited SGK1 more than those without an —OH group at C‐4’ (class B) (Figure 4C). The IC50 of each compound is listed in Figure 4D; and Figure S6 (Supporting Information). […] Conversely, the absence of an ‐OH group at C‐8 led to a greater than 10‐fold reduction in flavonoid SGK1 inhibitory activity, as shown by the performance of A1 or A4. […] The inhibitory activity of HBT (10 µmol) against 28 human AGC kinases was tested by KinaseProfiler Assay (Eurofins Discovery). The percentage of HBT's inhibitory activity against each kinase was normalized by the respective positive inhibitors of AGC kinases.
(§2) The initial crystal structures of SGK1 (PDB entry: 3HDN, 3HDM, and 2R5T) were obtained from the Protein Data Bank (PDB). The prepared inhibitors were then docked by Glide with the extra precision (XP) scoring mode to estimate the binding affinity for each protein–ligand complex. The detailed process of docking has been described previously.^[ [46] ^] HEK293T cells were transfected with SGK1 mutant plasmids. After 24 h, cells were lysed and immunoprecipitated with anti‐FLAG antibody and beads. Immune complexes were washed with kinase buffer and incubated in kinase buffer with substrate peptide for 1 h at 30 ℃ followed by LC/MS measurement as described above. KINOMEscan Profiling Service and KinaseProfiler Service Assay were provided by Eurofins Discovery.

[3] = target: T3, SGK2 (Homo sapiens, UniProt Q9HBY8); test: KinaseProfiler Assay, AGC kinase panel; type: biochemical; details: HBT 10 µmol; normalized by positive inhibitors
T3 construct: purchased Eurofins Discovery (KinaseProfiler Service)
T3 sequence (Q9HBY8 1-367): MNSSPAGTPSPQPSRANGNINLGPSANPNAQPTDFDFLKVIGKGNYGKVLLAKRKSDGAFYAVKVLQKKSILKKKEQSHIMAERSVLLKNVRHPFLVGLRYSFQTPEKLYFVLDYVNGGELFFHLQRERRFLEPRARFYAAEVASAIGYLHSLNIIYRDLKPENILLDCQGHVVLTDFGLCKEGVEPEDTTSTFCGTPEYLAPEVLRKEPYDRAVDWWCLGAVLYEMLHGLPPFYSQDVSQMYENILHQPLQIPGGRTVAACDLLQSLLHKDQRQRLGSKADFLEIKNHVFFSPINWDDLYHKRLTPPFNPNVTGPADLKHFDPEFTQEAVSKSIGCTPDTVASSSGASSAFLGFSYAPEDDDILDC
Description: as §1, §2

[4] = target: T4, SGK3 (Homo sapiens, UniProt Q96BR1); test: KinaseProfiler Assay, AGC kinase panel; type: biochemical; details: HBT 10 µmol; normalized by positive inhibitors
T4 construct: purchased Eurofins Discovery (KinaseProfiler Service)
T4 sequence (Q96BR1 1-496): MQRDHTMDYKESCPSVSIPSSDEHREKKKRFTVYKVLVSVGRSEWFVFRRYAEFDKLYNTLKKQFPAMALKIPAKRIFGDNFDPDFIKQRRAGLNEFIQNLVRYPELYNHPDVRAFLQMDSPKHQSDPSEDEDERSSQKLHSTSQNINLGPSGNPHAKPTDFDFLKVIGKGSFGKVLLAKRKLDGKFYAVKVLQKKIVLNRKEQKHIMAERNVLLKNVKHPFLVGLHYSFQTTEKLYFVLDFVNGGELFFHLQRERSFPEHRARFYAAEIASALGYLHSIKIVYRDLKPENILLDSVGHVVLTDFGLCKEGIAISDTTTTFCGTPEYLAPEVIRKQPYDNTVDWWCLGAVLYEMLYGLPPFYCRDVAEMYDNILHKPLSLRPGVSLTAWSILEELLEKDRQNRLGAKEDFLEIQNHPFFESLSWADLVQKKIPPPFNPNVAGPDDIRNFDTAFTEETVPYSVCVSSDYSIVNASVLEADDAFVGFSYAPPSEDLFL
Description: as §1, §2

[5] = target: T5, catalytic subunit C-beta of PKA (PKAcβ) (Homo sapiens, UniProt P22694); test: KinaseProfiler Assay, AGC kinase panel; type: biochemical; details: HBT 10 µmol
T5 construct: purchased Eurofins Discovery (KinaseProfiler Service)
Description: as §1, §2

[6] = target: T1, SGK1; test: KinaseProfiler Assay, AGC kinase panel; type: biochemical; design: purchased Eurofins Discovery (KinaseProfiler Service); details: HBT 10 µmol; normalized by positive inhibitors
Description: as §1
The initial crystal structures of SGK1 (PDB entry: 3HDN, 3HDM, and 2R5T) were obtained from the Protein Data Bank (PDB). The prepared inhibitors were then docked by Glide with the extra precision (XP) scoring mode to estimate the binding affinity for each protein–ligand complex. […]

Compound: O=c1c(O)c(-c2ccc(O)cc2)oc2c(O)c(O)cc(O)c12 [HBT, herbacetin]
- Kd ([1]; KINOMEscan, read-out: binding constants (Kds) for SGK1): 0.84 µM
- Kd fold lower than EMD638683 ([1]; same KINOMEscan assay): 14 fold
- inhibitory effect on ROCK-I [2]: high inhibitory effects
- inhibitory activity on SGK2 [3]: 105%
- inhibitory activity on SGK3 [4]: 77%
- inhibitory effect on PKAcβ [5]: high inhibitory effects
- inhibitory activity on SGK1 [6]: 95%
